Experimental findings from patent US9895381B2, “Vitamin D receptor agonists to treat diseases involving CXCL12 activity” (Salk Institute for Biological Studies, priority 2013, dated 2018) are described below.

Structures are written as SMILES.

For one assay, the system named is primary mouse PSCs. Description: RNA-Seq transcriptome of PSCs with or without VDR ligand. Type of assay: cell-based. The protocol: Pancreatic stellate cells (PSCs) were isolated from pancreata of wild-type C57BL6/J mice at 8 weeks of age by a modification of the method described by Apte et al. (Apte et al., 1998). Briefly, pancreatic tissue was minced with scissors and digested with 0.02% Pronase (Roche, Indianapolis, Ind.), 0.05% Collagenase P (Roche), and 0.1% DNase (Roche) in Gey's balanced salt solution (GBSS; Sigma Aldrich, St. Louis, Mo.) at 37° C. for […] Digested tissue was then filtered through a 100 μm nylon mesh. Cells were washed once with GBSS, pelleted, and resuspended in 9.5 ml GBSS containing 0.3% bovine serum albumin (BSA) and 8 ml 28.7% Nycodenz solution (Sigma Aldrich; approximate density of the solution is 1.070). The cell suspension was layered beneath GBSS containing 0.3% BSA, and centrifuged at 1400×g for 20 min at 4° C. The cells of interest were harvested from the interface of the Nycodenz solution at the bottom and the aqueous solution at the top. Isolated PSCs were washed with GBSS and resuspended in DMEM (Invitrogen) containing 10% characterized FBS (HyClone) and antibiotics (penicillin 100 U/ml and streptomycin 100 μg/ml, Invitrogen). Cells were maintained at 37° C. in a humidified atmosphere of 7% CO2. After reaching 80% confluence, cells were briefly trypsinized (0.25% Trypsin-EDTA, Invitrogen) and subcultured. Total RNA from human and mouse PSCs was isolated using Trizol (Invitrogen) and the RNeasy mini kit with on-column DNase digestion (Qiagen) according to the manufacturers' instructions. Biological quadruplicates were used for human samples, and biological triplicates used for mouse samples. For transcriptome studies with VDR activation, PSCs were treated with vehicle (DMSO) or 100 nM calcipotriol (Tocris) and harvested at the indicated time points. Sequencing libraries were prepared from 100-500 ng total RNA using the TruSeq RNA Sample Preparation Kit v2 (Illumina) according to the manufacturer's protocol. The Gene Expression Omnibus accession number for the RNA-Seq data is GSE43770. Briefly, mRNA was purified, fragmented, and used for first-, then second-strand cDNA synthesis followed by adenylation of 3′ ends. Samples were ligated to unique adapters and subject to PCR amplification. Libraries were then validated using the 2100 BioAnalyzer (Agilent), normalized, and pooled for sequencing. Human normal and cancer-associated PSCs were sequenced on the Illumina GAII platform with a 41 bp read length, while mouse PSCs and human MiaPaCa-2 cells were sequenced on the Illumina HiSeq 2000 using bar-coded multiplexing and a 51 bp read length. Read alignment and junction mapping was accomplished using TopHat2 v2.0.4 using a 25 bp 5′ segment seed for initial mapping followed by differential gene expression analysis using Cuffdiff v2.0.2 to map reads to the reference genome annotation, NCBI mouse build 37.2 and human build 37.2 (Trapnell et al., 2012). Median sequencing read yield per replicate sample was 49.2M for MiaPaCa-2 cells, 25.4M for mouse PSCs and 53.8M for human PSCs. Data were expressed as fragments per kilobase of exon per million fragments mapped (FPKM). Volcano plots were generated from Cuffdiff output using CummeRbund v2.0.0 (Trapnell et al., 2012).

The subject of the next assay is MiaPaCa-2 cells. The assay is described as follows: CAPSC conditioned media experiments. The conditions noted are these: CM from Cal-treated CAPSCs (100 nM, 48 h), 48 h on MiaPaCa-2. Type of assay: cell-based, human. The method, then: Primary […] were grown to 100% confluency. Fresh media was added to the cultures, and at this time, […] were treated with 100 nM calcipotriol. After 48 h, conditioned media was harvested, sterile-filtered through 0.45 μm pores, and added to pancreatic cancer cells (PCCs) at 50-60% confluency. PCCs were treated directly with 100 nM calcipotriol at the onset of conditioned media incubation. After 48 h, PCCs were harvested and RNA and protein isolated for analysis.

A further assay concerns primary human CAPSCs. Description: ACTA2 expression by qRT-PCR. Type of assay: cell-based. The conditions noted are these: 100 nM Cal, 48 h; samples responding / samples tested. The protocol:
Total RNA was purified following Trizol extraction according to the manufacturer's instructions. cDNA synthesis was carried out using iScript reagent (Bio-Rad), and qRT-PCR performed using SsoAdvanced SYBR Green reagent on the CFX384 detection system (Bio-Rad). Relative expression values were determined using the standard curve method. Primer sequences can be found in Table 2.
(In qPCR the cycle at which signal appears reflects the starting amount.)

For a further assay, the system named is wild type mice. Description: Cerulein-induced acute pancreatitis model. Type of assay: in vivo, mouse. To be noted: cerulein with daily 40 μg/kg calcipotriol. The method, then: Tissues were embedded in O.C.T. and frozen sections were fixed in ice-cold methanol at −20° C. for 20 min. Sections were blocked in PBS+0.2% BSA+0.05% Triton X-100 (blocking solution) for 1 h at room temperature. Primary antibody dilutions in blocking solution were as follows: anti-phospho-STAT3(Tyr705), 1:100 (Cell Signaling Technology); anti-Collagen I, 1:500 (Abcam), anti-GFAP, 1:100 (Abcam); anti-CD45, 1:100 (BD Pharmingen). Primary antibody incubations were performed in a humidified chamber at 4° C. overnight. Sections were washed 3 times with PBS+0.05% Triton X-100, then incubated in secondary antibodies for 1 h at room temperature, protected from light. Secondary antibodies used included Alexa Fluor 594 goat anti-rabbit IgG, Alexa Fluor 488 goat anti-rabbit IgG, Alexa Fluor 594 goat anti-rat IgG, and Alexa Fluor 488 goat anti-mouse IgG (Molecular Probes) and were used at 1:250 in blocking solution. […] Fluorescence was visualized on a Leica DM5000B fluorescent microscope and quantified using ImageJ. […] Cerulein injections were administered as 6 hourly injections 2 times per week for 12 weeks and analyzed 1 week after final cerulein injection, adapted from previous studies (Sah et al., 2013; Treiber et al., 2011; Yoo et al., 2005). […] Images were obtained and quantification of Sirius Red-positive area performed using Nuance 3.0.1.2 software. […]

`C=C1/C(=C\C=C2/CCC[C@]3(C)[C@@H]([C@H](C)/C=C/[C@@H](O)C4CC4)CC[C@@H]23)C[C@@H](O)C[C@@H]1O` [Cal, 1α,24-(OH)2-24-cyclopropyl-D3]: the “effect on activation and cancer signatures in PSCs” value in the assay with primary mouse PSCs was “inhibition of the activation and cancer signatures”. Moreover, in the assay with primary mouse PSCs (activated PSCs), the “genes with significantly decreased expression” value was 1616 genes and the “genes with significantly increased expression” value came to 664 genes. In the assay with primary mouse PSCs (pre-activated PSCs), the “genes with significantly decreased expression” value worked out at 431 genes and the “genes with significantly increased expression” value was determined as 307 genes. Also, the “gene expression changes induced by CAPSC conditioned media” value with MiaPaCa-2 cells was “largely abrogated”. The “decreased expression of αSMA (ACTA2), patient samples” value with primary human CAPSCs is 24/27. In the assay with wild type mice, the “activation-associated changes in PSC gene expression” value is reported as “impaired activation-associated changes in PSC gene expression”; the “leukocyte infiltration and fibrosis” value was “reduced leukocyte infiltration and fibrosis”.
